Test results as given in patent US11478471B2, “Methods and compositions for treating diabetes, metabolic syndrome and other conditions” (priority 2005, dated 2022).
≈ marks a conversion by molar mass, not a printed value. Where two headings read alike, the source gives them in different places.

Assays:
[1] = Toxicokinetics in the 28 day dog study of DIO-902 (with racemic ketoconazole group a); conditions: beagle, plasma, po, dogs; for concentration at 2 h / concentration at 4 h / concentration at 8 h / concentration at 12 h / concentration at 0 h / concentration at 1 h: Drug concentration in plasma; for Tmax: Tmax Range; for AUC(0-t): AUC(0-12);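 on all read-outs here: beagle dogs dosed orally once daily within a 28-day GLP study, 3 animals per sex per group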
Candida albicans = experiment: Antifungal MIC; assay type: cell-based
Candida glabrata = experiment: Antifungal MIC; assay type: cell-based; conditions: Nakaseomyces glabratus, read-out: MIC
[2] = female, 20 mg/kg, 20 mg/kg oral, day 1, F
[3] = female, 20 mg/kg, 20 mg/kg oral, day 28, F
[4] = male, 2 mg/kg, 2 mg/kg oral, day 28, M
[5] = male, 2 mg/kg, 2 mg/kg oral, day 1, M
[6] = male, 6.5 mg/kg, 6.5 mg/kg oral, day 28, M
[7] = male, 6.5 mg/kg, 6.5 mg/kg oral, day 1, M
[8] = male, 20 mg/kg, 20 mg/kg oral, day 1, M
[9] = male, 20 mg/kg, 20 mg/kg oral, day 28, M

CC(=O)N1CCN(c2ccc(OC[C@@H]3CO[C@@](Cn4ccnc4)(c4ccc(Cl)cc4Cl)O3)cc2)CC1 [DIO-902, 2S,4R cis-1-acetyl-4-[4-[[2-(2,4-dichlorophenyl)-2-(1H-imidazol-1-ylmethyl)-1,3-dioxolan-4-yl]methoxyl]phenyl]piperazine]
concentration at 2 h [1, 2]: 650 ng/mL
concentration at 4 h [1, 2]: 9720 ng/mL
concentration at 8 h [1, 2]: 9950 ng/mL
concentration at 12 h [1, 2]: 5440 ng/mL
concentration at 0 h [1, 3]: 2880 ng/mL
concentration at 1 h [1, 3]: 1780 ng/mL
concentration at 2 h [1, 3]: 2430 ng/mL
concentration at 4 h [1, 3]: 6420 ng/mL
concentration at 8 h [1, 3]: 9830 ng/mL
concentration at 12 h [1, 3]: 6530 ng/mL
Tmax [1, 2]: 4 to 8 h
Tmax [1, 3]: 8 to 12 h
AUC(0-t) ([1]; male, 2 mg/kg, 2 mg/kg oral, day 1, M, n = 1): 2390 ng·h/mL
AUC(0-t) [1, 4]: 3260 ng·h/mL
Cmax [1, 5]: 510 ng/mL
Cmax [1, 4]: 680 ng/mL
concentration at 0 h [1, 5]: < 250 ng/mL
concentration at 1 h [1, 5]: 400 ng/mL
concentration at 2 h [1, 5]: 450 ng/mL
concentration at 4 h [1, 5]: < 250 ng/mL
concentration at 8 h [1, 5]: < 250 ng/mL
concentration at 12 h [1, 5]: < 250 ng/mL
concentration at 0 h [1, 4]: < 250 ng/mL
concentration at 1 h [1, 4]: 660 ng/mL
concentration at 2 h [1, 4]: 540 ng/mL
concentration at 4 h [1, 4]: 380 ng/mL
concentration at 8 h [1, 4]: < 250 ng/mL
concentration at 12 h [1, 4]: < 250 ng/mL
Tmax [1, 5]: 1 to 2 h
Tmax [1, 4]: 1 to 4 h
AUC(0-t) ([1]; male, 6.5 mg/kg, 6.5 mg/kg oral, day 1, M, n = 2): 12200 ng·h/mL
AUC(0-t) [1, 6]: 14600 ng·h/mL
Cmax [1, 7]: 2000 ng/mL
Cmax [1, 6]: 2010 ng/mL
concentration at 0 h [1, 7]: < 250 ng/mL
concentration at 1 h [1, 7]: 1190 ng/mL
concentration at 2 h [1, 7]: 1620 ng/mL
concentration at 4 h [1, 7]: 1250 ng/mL
concentration at 8 h [1, 7]: 410 ng/mL
concentration at 12 h [1, 7]: 400 ng/mL
concentration at 0 h [1, 6]: < 250 ng/mL
concentration at 1 h [1, 6]: 1170 ng/mL
concentration at 2 h [1, 6]: 1390 ng/mL
concentration at 4 h [1, 6]: 1540 ng/mL
concentration at 8 h [1, 6]: 1330 ng/mL
concentration at 12 h [1, 6]: 880 ng/mL
Tmax [1, 7]: 1 to 4 h
Tmax [1, 6]: 1 to 8 h
AUC(0-t) [1, 8]: 60600 ng·h/mL
AUC(0-t) [1, 9]: 80000 ng·h/mL
Cmax [1, 8]: 9380 ng/mL
Cmax [1, 9]: 9940 ng/mL
concentration at 0 h [1, 8]: < 250 ng/mL
concentration at 1 h [1, 8]: 7050 ng/mL
concentration at 2 h [1, 8]: 8300 ng/mL
concentration at 4 h [1, 8]: 6150 ng/mL
concentration at 8 h [1, 8]: 2920 ng/mL
concentration at 12 h [1, 8]: 6740 ng/mL
concentration at 0 h [1, 9]: 1190 ng/mL
concentration at 1 h [1, 9]: 9130 ng/mL
concentration at 2 h [1, 9]: 9780 ng/mL
concentration at 4 h [1, 9]: 8170 ng/mL
concentration at 8 h [1, 9]: 5860 ng/mL
concentration at 12 h [1, 9]: 4250 ng/mL
Tmax [1, 8]: 1 to 4 h
Tmax [1, 9]: 2 to 4 h
MIC (Candida albicans; DSM11225, DSM strain 11225, 48 h, read-out: MIC): < 0.015 µg/mL
MIC (Candida albicans; DSM11943, DSM strain 11943, 48 h, read-out: MIC): < 0.015 µg/mL
MIC (Candida albicans; DSM11944, DSM strain 11944, 48 h, read-out: MIC): < 0.015 µg/mL
MIC (Candida albicans; DSM11945, DSM strain 11945, 48 h, read-out: MIC): 0.03 µg/mL (≈ 0.0565 µM)
MIC (Candida albicans; DSM11948, DSM strain 11948, 48 h, read-out: MIC): < 0.015 µg/mL
MIC (Candida albicans; DSM11949, 48 h): 0.125 µg/mL (≈ 0.235 µM)
MIC (Candida albicans; strain 98-St-00799, 48 h, read-out: MIC): < 0.015 µg/mL
MIC (Candida glabrata; DSM11226, DSM strain 11226, 48 h): 0.5 µg/mL (≈ 0.941 µM)
MIC (Candida glabrata; DSM11950, DSM strain 11950, 48 h): 0.25 µg/mL (≈ 0.47 µM)
